This passage reports AC50 results from ChEMBL document CHEMBL5291721, “A preclinical secondary pharmacology resource illuminates target-adverse drug reaction associations of marketed drugs” (Nat Commun, 2023).

Targets include Cannabinoid receptor 1 (Homo sapiens, UniProt P21554); Melanocortin receptor 3 (Homo sapiens, UniProt P41968); Adenosine receptor A2a (Homo sapiens, UniProt P29274); Motilin receptor (Homo sapiens, UniProt O43193).
Assay [1] has as its target Voltage-gated inwardly rectifying potassium channel KCNH2 (Homo sapiens, UniProt Q12809). The class given is functional.
The target of assay [2] is T1, 5-hydroxytryptamine receptor 1A (Homo sapiens, UniProt P08908).
T1 sequence (P08908 whole entry): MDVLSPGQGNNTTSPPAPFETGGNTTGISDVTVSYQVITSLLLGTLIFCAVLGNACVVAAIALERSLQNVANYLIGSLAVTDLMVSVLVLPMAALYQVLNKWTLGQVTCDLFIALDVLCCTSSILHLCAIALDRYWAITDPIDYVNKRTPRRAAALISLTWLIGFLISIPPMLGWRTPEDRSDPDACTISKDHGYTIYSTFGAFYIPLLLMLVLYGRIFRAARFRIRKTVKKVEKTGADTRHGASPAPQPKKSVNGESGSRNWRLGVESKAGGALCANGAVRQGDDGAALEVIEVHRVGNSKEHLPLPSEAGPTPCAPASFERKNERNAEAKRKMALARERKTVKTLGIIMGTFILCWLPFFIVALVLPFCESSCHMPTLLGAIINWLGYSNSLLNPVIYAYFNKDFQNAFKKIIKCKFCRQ
Type of assay: functional, cell-based.

The target in assay [3] is T1, 5-hydroxytryptamine receptor 1A. The class given is functional, cell-based. The source holds these as a separate data set.
The target of the next assay is T2, Adenosine receptor A1 (Homo sapiens, UniProt P30542).
T2 sequence (P30542 whole entry): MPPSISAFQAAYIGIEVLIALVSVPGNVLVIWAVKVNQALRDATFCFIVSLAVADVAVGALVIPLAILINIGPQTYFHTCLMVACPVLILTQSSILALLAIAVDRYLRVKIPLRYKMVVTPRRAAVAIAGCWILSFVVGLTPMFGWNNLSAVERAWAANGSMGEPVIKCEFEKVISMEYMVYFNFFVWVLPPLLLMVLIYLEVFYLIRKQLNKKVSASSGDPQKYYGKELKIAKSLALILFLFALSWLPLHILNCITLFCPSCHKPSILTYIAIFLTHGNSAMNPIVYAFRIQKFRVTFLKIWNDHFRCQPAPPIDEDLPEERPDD

The target of a further assay is Histamine H2 receptor (Homo sapiens, UniProt P25021). The class given is functional, cell-based.
The next assay concerns the target Acetylcholinesterase (Homo sapiens, UniProt P22303). The class given is functional.
Assay [4] addresses T3, Muscarinic acetylcholine receptor M2 (Homo sapiens, UniProt P08172).
T3 sequence (P08172 whole entry): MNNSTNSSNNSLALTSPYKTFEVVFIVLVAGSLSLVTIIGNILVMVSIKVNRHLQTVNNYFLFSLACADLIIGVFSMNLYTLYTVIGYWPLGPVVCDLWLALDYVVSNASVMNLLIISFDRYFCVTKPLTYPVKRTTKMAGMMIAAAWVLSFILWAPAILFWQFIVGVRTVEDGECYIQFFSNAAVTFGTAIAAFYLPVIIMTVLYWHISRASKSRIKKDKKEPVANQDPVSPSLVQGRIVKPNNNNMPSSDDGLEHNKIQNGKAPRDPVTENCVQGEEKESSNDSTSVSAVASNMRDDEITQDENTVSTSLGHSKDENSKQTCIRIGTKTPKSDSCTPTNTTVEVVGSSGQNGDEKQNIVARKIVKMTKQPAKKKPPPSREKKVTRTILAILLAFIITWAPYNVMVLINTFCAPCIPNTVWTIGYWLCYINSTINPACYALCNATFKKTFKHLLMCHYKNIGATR
The class given is functional, cell-based.

The target of assay [5] is 5-hydroxytryptamine receptor 2A (Homo sapiens, UniProt P28223). The class given is functional, cell-based.
The target of assay [6] is T4, Alpha-2C adrenergic receptor (Homo sapiens, UniProt P18825).
T4 sequence (P18825 whole entry): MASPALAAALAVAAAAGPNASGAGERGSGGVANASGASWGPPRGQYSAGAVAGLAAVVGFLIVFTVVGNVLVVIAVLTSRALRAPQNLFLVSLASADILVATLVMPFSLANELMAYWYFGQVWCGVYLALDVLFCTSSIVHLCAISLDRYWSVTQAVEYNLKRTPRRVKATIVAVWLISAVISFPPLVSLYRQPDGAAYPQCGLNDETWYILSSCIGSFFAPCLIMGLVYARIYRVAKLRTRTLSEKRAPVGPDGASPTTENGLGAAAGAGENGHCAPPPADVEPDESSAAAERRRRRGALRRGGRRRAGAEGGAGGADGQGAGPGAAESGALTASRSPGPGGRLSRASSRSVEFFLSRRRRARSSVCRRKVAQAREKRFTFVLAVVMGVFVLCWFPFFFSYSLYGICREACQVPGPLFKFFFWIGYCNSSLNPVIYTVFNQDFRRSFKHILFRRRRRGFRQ
Type of assay: functional.

Assay [7] concerns the target T5, Alpha-2A adrenergic receptor (Homo sapiens, UniProt P08913).
T5 sequence (P08913 whole entry): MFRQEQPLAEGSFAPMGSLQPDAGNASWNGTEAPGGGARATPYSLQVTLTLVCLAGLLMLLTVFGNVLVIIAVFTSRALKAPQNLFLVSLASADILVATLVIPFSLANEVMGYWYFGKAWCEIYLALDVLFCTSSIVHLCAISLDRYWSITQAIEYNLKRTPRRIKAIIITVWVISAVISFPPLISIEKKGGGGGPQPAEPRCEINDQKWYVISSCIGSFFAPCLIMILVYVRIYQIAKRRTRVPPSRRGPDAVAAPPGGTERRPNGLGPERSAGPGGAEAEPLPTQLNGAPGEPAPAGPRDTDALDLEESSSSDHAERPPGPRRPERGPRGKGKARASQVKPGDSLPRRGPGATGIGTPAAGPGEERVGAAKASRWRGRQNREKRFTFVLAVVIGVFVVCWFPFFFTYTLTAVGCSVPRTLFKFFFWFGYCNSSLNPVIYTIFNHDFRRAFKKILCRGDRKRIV
Type of assay: functional, cell-based.

Each structure is given as a SMILES string.
Further: assay procedure not described here.

Sequence of Voltage-gated inwardly rectifying potassium channel KCNH2 (Q12809 whole entry): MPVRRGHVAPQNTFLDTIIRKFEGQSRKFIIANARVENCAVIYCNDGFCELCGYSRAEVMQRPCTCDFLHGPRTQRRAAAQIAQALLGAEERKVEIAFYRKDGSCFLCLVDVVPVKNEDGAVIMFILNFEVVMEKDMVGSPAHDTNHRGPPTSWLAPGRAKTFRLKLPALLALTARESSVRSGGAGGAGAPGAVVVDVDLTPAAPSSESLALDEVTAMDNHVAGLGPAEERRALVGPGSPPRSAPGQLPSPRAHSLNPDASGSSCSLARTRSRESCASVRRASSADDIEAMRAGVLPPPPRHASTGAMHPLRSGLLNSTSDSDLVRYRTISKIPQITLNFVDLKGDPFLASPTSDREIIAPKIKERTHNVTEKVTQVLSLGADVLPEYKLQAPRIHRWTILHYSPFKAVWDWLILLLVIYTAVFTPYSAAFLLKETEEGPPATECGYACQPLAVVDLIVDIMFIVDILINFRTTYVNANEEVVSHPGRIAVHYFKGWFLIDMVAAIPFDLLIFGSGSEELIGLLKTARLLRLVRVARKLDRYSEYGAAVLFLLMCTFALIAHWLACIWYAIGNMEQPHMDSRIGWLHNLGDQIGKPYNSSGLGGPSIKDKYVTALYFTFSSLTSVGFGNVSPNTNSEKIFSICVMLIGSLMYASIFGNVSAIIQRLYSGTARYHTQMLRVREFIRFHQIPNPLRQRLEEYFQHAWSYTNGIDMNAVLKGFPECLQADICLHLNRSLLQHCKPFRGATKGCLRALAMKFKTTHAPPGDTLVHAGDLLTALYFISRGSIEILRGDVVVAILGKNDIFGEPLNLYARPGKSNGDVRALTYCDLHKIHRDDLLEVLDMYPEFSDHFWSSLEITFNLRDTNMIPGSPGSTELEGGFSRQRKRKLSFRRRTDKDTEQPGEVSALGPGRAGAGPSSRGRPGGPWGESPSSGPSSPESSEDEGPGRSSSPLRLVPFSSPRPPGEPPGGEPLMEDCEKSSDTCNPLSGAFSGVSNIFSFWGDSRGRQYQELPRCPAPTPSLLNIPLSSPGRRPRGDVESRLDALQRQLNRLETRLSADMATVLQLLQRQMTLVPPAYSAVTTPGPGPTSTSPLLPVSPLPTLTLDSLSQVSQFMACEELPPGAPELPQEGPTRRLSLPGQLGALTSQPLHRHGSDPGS
Sequence of 5-hydroxytryptamine receptor 2A (P28223 whole entry): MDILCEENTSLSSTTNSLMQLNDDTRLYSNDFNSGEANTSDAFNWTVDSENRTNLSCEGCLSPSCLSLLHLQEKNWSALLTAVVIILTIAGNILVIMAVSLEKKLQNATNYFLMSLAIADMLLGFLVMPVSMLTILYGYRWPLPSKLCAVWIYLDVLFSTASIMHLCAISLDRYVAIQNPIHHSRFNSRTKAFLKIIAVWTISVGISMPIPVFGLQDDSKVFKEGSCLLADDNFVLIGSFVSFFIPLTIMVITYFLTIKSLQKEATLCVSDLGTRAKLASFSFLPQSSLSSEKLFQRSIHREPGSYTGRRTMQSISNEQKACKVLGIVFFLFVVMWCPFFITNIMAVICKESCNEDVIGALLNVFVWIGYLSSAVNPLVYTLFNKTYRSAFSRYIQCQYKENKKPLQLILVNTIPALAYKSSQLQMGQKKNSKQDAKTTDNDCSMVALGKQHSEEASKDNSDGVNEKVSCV
Sequence of Melanocortin receptor 3 (P41968 whole entry): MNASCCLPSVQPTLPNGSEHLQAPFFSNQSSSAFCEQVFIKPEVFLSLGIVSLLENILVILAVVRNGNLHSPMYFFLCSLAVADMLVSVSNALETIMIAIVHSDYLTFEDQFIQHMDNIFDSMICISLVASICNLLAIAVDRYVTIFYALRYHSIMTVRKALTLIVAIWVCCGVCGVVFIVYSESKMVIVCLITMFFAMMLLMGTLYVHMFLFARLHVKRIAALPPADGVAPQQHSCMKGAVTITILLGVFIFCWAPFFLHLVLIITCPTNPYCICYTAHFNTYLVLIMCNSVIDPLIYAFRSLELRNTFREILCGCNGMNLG
Sequence of Acetylcholinesterase (P22303 whole entry): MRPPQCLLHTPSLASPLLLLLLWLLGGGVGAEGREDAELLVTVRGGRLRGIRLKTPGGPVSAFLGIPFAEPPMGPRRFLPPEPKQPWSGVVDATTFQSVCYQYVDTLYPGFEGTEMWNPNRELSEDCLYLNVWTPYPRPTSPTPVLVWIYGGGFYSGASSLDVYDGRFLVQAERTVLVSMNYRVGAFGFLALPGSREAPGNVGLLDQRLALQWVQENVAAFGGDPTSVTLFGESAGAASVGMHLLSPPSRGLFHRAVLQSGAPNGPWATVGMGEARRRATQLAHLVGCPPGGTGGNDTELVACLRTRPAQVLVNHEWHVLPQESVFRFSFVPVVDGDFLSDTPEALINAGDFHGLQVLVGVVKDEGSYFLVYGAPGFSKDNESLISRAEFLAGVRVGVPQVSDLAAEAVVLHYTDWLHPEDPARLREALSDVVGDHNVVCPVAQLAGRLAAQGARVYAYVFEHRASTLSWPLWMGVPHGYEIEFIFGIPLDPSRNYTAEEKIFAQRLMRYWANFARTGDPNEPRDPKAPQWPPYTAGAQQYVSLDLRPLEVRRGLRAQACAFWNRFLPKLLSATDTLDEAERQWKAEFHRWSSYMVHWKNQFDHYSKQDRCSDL
Sequence of Cannabinoid receptor 1 (P21554 whole entry): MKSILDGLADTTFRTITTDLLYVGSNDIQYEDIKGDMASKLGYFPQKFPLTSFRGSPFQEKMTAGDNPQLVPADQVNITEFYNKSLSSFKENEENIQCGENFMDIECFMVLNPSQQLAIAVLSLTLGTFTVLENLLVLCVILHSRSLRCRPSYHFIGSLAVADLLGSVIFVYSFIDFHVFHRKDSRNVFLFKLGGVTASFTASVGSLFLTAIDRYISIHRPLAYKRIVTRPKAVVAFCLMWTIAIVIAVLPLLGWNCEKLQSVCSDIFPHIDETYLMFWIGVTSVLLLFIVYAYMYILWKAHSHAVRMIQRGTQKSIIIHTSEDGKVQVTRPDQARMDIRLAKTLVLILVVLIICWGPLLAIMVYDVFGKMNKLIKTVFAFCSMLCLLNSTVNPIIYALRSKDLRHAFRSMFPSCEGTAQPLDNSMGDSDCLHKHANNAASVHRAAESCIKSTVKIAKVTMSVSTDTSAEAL
Sequence of Adenosine receptor A2a (P29274 whole entry): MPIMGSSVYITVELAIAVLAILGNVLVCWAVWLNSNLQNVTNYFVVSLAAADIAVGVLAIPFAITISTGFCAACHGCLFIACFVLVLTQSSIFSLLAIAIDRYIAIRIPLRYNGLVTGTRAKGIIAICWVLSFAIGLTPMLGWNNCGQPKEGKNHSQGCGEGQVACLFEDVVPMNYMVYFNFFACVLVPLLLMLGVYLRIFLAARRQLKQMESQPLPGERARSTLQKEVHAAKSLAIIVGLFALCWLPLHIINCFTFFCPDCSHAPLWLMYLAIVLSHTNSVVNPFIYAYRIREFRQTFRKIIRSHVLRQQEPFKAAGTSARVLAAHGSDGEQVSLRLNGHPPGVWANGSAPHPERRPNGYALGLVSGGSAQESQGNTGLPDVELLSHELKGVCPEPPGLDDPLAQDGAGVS
Sequence of Motilin receptor (O43193 whole entry): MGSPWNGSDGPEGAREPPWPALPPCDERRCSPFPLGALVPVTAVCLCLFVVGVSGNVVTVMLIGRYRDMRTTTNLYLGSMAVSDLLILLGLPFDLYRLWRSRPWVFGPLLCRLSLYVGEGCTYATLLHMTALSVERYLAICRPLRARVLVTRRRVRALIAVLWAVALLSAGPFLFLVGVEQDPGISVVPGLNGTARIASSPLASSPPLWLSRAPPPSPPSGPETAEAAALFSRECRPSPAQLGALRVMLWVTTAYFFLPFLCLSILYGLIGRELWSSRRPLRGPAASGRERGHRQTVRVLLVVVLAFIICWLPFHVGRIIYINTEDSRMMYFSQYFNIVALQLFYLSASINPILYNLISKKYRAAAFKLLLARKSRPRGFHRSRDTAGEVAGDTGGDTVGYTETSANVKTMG
Sequence of Histamine H2 receptor (P25021 whole entry): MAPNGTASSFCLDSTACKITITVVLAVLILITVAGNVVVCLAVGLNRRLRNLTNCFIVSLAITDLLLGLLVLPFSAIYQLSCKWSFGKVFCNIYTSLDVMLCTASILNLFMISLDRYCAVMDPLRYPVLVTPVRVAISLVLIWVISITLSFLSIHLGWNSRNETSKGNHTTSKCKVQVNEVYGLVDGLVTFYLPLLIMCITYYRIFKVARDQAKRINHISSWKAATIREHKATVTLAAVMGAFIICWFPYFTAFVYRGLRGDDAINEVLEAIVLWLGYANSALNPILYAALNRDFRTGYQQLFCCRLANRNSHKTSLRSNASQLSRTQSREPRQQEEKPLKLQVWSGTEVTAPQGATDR

Consider `CN1CCN(C2=Nc3ccccc3Oc3ccc(Cl)cc32)CC1` [LOXAPINE], for which the AC50 in assay [1] is 10.6 µM; in assay [2], > 10 µM; in assay [3], > 10 µM; on Adenosine receptor A1 it was > 30 µM; on Cannabinoid receptor 1, > 10 µM; at Melanocortin receptor 3, > 30 µM. The half-maximal activity concentration (AC50) on Adenosine receptor A2a was > 30 µM; at Histamine H2 receptor it was > 10 µM; on Motilin receptor, > 10 µM; at Acetylcholinesterase, > 30 µM.

Turning to `Clc1ccc2c(N3CCN(CCCN4CCN(c5ccnc6cc(Cl)ccc56)CC4)CC3)ccnc2c1` [PIPERAQUINE], the half-maximal activity concentration (AC50) in assay [4] was > 30 µM; in assay [1] it was 2.56 µM; in assay [3] it was > 30 µM; on Adenosine receptor A1, > 30 µM; on Melanocortin receptor 3, > 30 µM; in [5], > 30 µM. The AC50 (in assay [6]; at Adenosine receptor A2a; in [7]; at Histamine H2 receptor; at Motilin receptor) was > 30 µM throughout.

As for `CNCc1ccc(-c2[nH]c3cc(F)cc4c3c2CCNC4=O)cc1` [RUCAPARIB], the half-maximal activity concentration (AC50) in [4] is > 10 µM; in assay [1], 14.1 µM; on Adenosine receptor A1, > 30 µM; on Melanocortin receptor 3, > 30 µM; in assay [5], > 10 µM; in [6], > 10 µM. In addition, the concentration at half-maximal activity (AC50) on Adenosine receptor A2a and on Motilin receptor was > 30 µM each time.

In the case of `CCOC(=O)C1=C[C@]2(CC)CCCN3CCc4c(n1c1ccccc41)[C@@H]32` [VINPOCETINE], the AC50 is 13 µM in assay [4]; > 30 µM in [3]; 30 µM at Adenosine receptor A1; > 30 µM on Melanocortin receptor 3; > 30 µM in assay [5]; 1.1 µM in assay [6]. The half-maximal activity concentration (AC50) (at Adenosine receptor A2a; in assay [7]; on Histamine H2 receptor; at Motilin receptor) was > 30 µM each time.

For `CC(C(=O)O)c1ccc(-c2ccccc2)c(F)c1` (stereo not given) [FLURBIPROFEN], the half-maximal activity concentration (AC50) in [4] was > 10 µM; in [1], > 30 µM; in [2], > 10 µM; in assay [3], > 10 µM; on Adenosine receptor A1 it was > 10 µM; on Cannabinoid receptor 1, > 10 µM. Moreover, the AC50 (on Melanocortin receptor 3; in assay [6]; at Adenosine receptor A2a; in assay [7]; at Histamine H2 receptor; on Motilin receptor) was > 10 µM throughout. The half-maximal activity concentration (AC50) at Acetylcholinesterase was > 30 µM.

As to `[H]/N=C(/N)N/C(=N/[H])NCCc1ccccc1` [PHENFORMIN], the concentration at half-maximal activity (AC50) in [4] was > 10 µM; in assay [1], > 30 µM; in assay [2], > 30 µM; in assay [3], > 30 µM; at Adenosine receptor A1, > 30 µM; at Cannabinoid receptor 1, > 30 µM. Besides, the half-maximal activity concentration (AC50) at Melanocortin receptor 3 is > 30 µM; in assay [6] it was > 30 µM; at Adenosine receptor A2a, > 30 µM; in [7] it was > 10 µM; at Histamine H2 receptor, > 30 µM; at Motilin receptor, > 10 µM.

As for `CC(N)C(O)c1ccccc1` (stereo not given) [PHENYLPROPANOLAMINE], the AC50 in assay [4] is > 10 µM; in [1], > 30 µM; in [2] it was > 10 µM; in [3], > 10 µM; at Adenosine receptor A1, > 30 µM; on Cannabinoid receptor 1, > 10 µM. Further, the concentration at half-maximal activity (AC50) is > 30 µM at Melanocortin receptor 3; 7.3 µM in assay [6]; > 30 µM at Adenosine receptor A2a; > 10 µM in [7]; > 10 µM at Histamine H2 receptor; > 10 µM on Motilin receptor.

For `CCCCC1C(=O)N(c2ccccc2)N(c2ccccc2)C1=O` [PHENYLBUTAZONE], the concentration at half-maximal activity (AC50) in assay [4] is > 10 µM; in [1], > 30 µM; in [2], > 10 µM; in assay [3], > 10 µM; at Adenosine receptor A1, > 30 µM; at Cannabinoid receptor 1, > 10 µM. Further, the AC50 on Melanocortin receptor 3 was > 30 µM; in assay [6] it was > 10 µM; on Adenosine receptor A2a, > 30 µM; in assay [7] it was > 10 µM; on Histamine H2 receptor it was > 10 µM; on Motilin receptor it was > 30 µM.

As to `OC1(c2ccc(Cl)cc2)c2ccccc2C2=NCCN21` (stereo not given) [MAZINDOL], the concentration at half-maximal activity (AC50) was > 30 µM in assay [4]; > 30 µM in assay [1]; > 30 µM in assay [2]; > 30 µM in [3]; > 30 µM on Adenosine receptor A1; > 10 µM on Cannabinoid receptor 1. Also, the AC50 on Melanocortin receptor 3 was > 30 µM; in assay [6], > 30 µM; on Adenosine receptor A2a, > 30 µM; in assay [7], > 30 µM; on Histamine H2 receptor, > 10 µM; on Motilin receptor, > 30 µM.

As to `CCC(=O)O[C@]1(C(=O)SCF)[C@H](C)C[C@H]2[C@@H]3C[C@H](F)C4=CC(=O)C=C[C@]4(C)[C@@]3(F)[C@@H](O)C[C@@]21C` [FLUTICASONE PROPIONATE], the AC50 in [4] was > 30 µM; in assay [1] it was > 30 µM; in [2], > 10 µM; in [3], > 30 µM; at Adenosine receptor A1, > 30 µM; on Cannabinoid receptor 1 it was > 30 µM. Also, the half-maximal activity concentration (AC50) at Melanocortin receptor 3 was > 30 µM; in assay [6] it was > 30 µM; on Adenosine receptor A2a, > 30 µM; in [7] it was > 30 µM; at Histamine H2 receptor, > 10 µM; on Motilin receptor it was > 30 µM. At Acetylcholinesterase, the concentration at half-maximal activity (AC50) is > 30 µM.

Take `CC(CCc1ccc(O)cc1)NCCc1ccc(O)c(O)c1` (stereo not given) [DOBUTAMINE]: the AC50 is > 30 µM in [4]; 20.3 µM in assay [1]; > 10 µM in assay [2]; > 30 µM in assay [3]; > 30 µM on Adenosine receptor A1; > 30 µM on Cannabinoid receptor 1. In addition, the AC50 at Melanocortin receptor 3 was > 30 µM; in [6], 0.798 µM; on Adenosine receptor A2a, > 30 µM; in [7] it was > 30 µM; on Histamine H2 receptor, > 10 µM; on Motilin receptor, > 30 µM.

The AC50 is the midpoint of the concentration-response curve, whichever way the signal moves. Low values mean greater potency, high ones weaker potency.
